Source: US20110312968A1, “METHOD FOR OPTIMIZING THE TREATMENT OF CHRONIC MYELOID LEUKEMIA WITH ABL TYROSINE KINASE INHIBITORS” (priority 2008, published 2011)

What was measured:
[1] = system: Shp1 expression in KCL22r cells; test: 5-Azacytidine treatment of Ima-resistant KCL22r cells: Shp1 expression; type: cell-based; conditions: Ima-resistant KCL22r cell line; along with demethylation of the SHP1 promoter region
Description: (§1) In this study, we have first used, as model system, a couple of Ima-sensitive (KCL22s) and Ima-resistant (KCL22r) KCL22 cell lines. In these cells, Ima resistance is independent by the oncogenic Bcr/Abl activity. We have found a very low level of Shp1 (both mRNA and protein), a protein with a tumour suppressor activity, in the KCL22r resistant cells, when compared to KCL22s sensitive cells. […] Gain-of-function mutations have been described in various hemopoietic neoplasias including Juvenile Chronic Myelomonocytic Leukemia. In Ph+ cells, oncogenic Bcr/Abl protein activates Shp2 through Gab2, an adaptor protein that, once phosphorylated is able to bind SH2 domain of Shp2. Through complex interactions that may involve the two carboxy-terminal tyrosine residues (542 and 580) Shp2 is also a signal transducer of growth factor receptor. We hypothesized that, Shp1, through dephosphorylation, might modulate the activity of Shp2 and constitute an important mechanism of Ima resistance. […] The data on primary cells support the role of Shp1 in Ima resistance in patients.

[2] = system: KCL22r cells; test: 5-Azacytidine treatment of Ima-resistant KCL22r cells: Ima sensitivity (Ima growth inhibition); type: cell-based; conditions: Ima-resistant KCL22r cell line after 5-AC treatment
Description: as §1

Nc1ncn([C@@H]2O[C@H](CO)[C@@H](O)[C@H]2O)c(=O)n1 [5-Azacytidine]
expression of Shp1 [1]: re-induced expression of Shp1 | Ima sensitivity, i.e. Ima growth inhibition [2]: re-established the Ima sensitivity
